# Laboratory results published in US5989874A, “Humectant, antistatic agent, dispersant and film-forming agent having polysaccharide as active principle, preparation process of polysaccharides, and Kliebsiella ocytoca TNM-3 strain” (Tayca Corporation, priority 1995, dated 1999).
# Tests used:
# [1] = Moisture retention in high-humidity environment; assay type: physicochemical; settings: relative humidity 92.9%, 30° C., 3 days
# Procedure: The above operations were carried out at a constant temperature of 30° C.
# [2] = Moisture retainability in low-humidity environment; assay type: physicochemical; settings: relative humidity 20%, 20° C., 3 days
# Procedure: The above operations were carried out at a constant temperature of 20° C.
# The sample weight was measured periodically and he moisture retention percentagewas calculated from the following equation.
# Moisture retention percentage(%)=(A-B)/B×100 (wherein A is sample weight when it became constant, and B is dry sample weight).
# [3] = test system: mushroom-derived tyrosinase; assay: Tyrosinase-inhibitory activity; assay type: biochemical; settings: relative values to kojic acid = 1.0; 0.1 ml of 300 μg/ml solution; L-tyrosine; 25° C., 10 minutes, pH 6.5
# Procedure: Absorbance at 475 nm was measured by an ultraviolet visible spectrophotometer. The above process was repeated without adding the polysaccharide, and the absorbance was measured in the similar way and given as blank. The above process was further carried out using the polysaccharide obtained in Example 3. […] The tyrosinase inhibition rate was calculated from the following equation. […] Tyrosinase inhibition rate=(OD2 -OD1)/OD2 ×100 wherein OD1 is absorbance at 475 nm in case the specimen was added, and OD2 is absorbance at 475 nm in case no specimen was added (blank).
# [4] = test system: skin; settings: 4% (w/v) aqueous solution
smiles,measurement,setting,value
"OCC(O)CO [Glycerol, glycerol]",Material retention percentage (moisture retention percentage),[1],139.1%
same,Moisture retention,[2],6.9%
"O=c1cc(CO)occ1O [Kojic acid, kojic acid]",Tyrosinase inhibition rate,[3],1.0
CCCCCCCCCCCCOS(=O)(=O)[O-].[Na+] [sodium lauryl sulfate],primary irritation index,[4],4.0
